# Assay results: patent US20250100994A1, “CDK12/13 COVALENT INHIBITORS OR PHARMACEUTICAL COMPOSITION THEREOF, AND USES THEREOF” (The Regents of the University of Michigan, priority 2023, published 2025)
# Read-outs that look alike come from different tables or passages of the source.
# Tests used:
# CDK12 = CDK12 (Homo sapiens (Human), UniProt Q9NYV4); assay: LANCE Ultra kinase assay, CDK12; assay type: biochemical
# Method: (§1) The inhibitory activities of the test compound on the kinases were evaluated by LANCE Ultra assay, which was used for detecting ATP-dependent phosphorylation of a ULight-4E-BP1 (Thr37/Thr46) substrate peptide (150 nM). In short, enzymatic reactions were performed in a reaction buffer (25 mM HEPES (pH 7.5), 10 mM MgCl2, 0.01% BSA, 0.01% Tween 20, and 1 mM DTT). The assay was performed in a 384-well plate (6 μL). A final concentration of an ATP substrate was […], and a final concentration of the ULight-4E-BP1 (Thr37/Thr46) substrate peptide was 150 nM. A final concentration of CDK9, CDK12, or CDK13 was 0.3, 30, or 30 nM, respectively. Pre-incubation of the compound and the enzyme was performed at room temperature for 60 min. The reaction was stopped by adding 10 mM EDTA and 0.15 nM Eu-labeled anti-phospho-eIF4E-binding protein 1 (Thr37/46) antibody in LANCE detection buffer after incubation at room temperature for 15, 60, or 90 min. Time-resolved fluorescence (excitation, 320 nm; emission donor, 615 nm; emission acceptor, 665 nm) was monitored using an EnVision spectrophotometer (PerkinElmer). Readings were computed as (acceptor count/donor count)×1000. IC50 values were derived by fitting a sigmoidal dose-response curve to a plot of assay readouts of inhibitor concentrations. All fittings were computed using program Prism 5.03 (GraphPad Software, San Diego, CA).
# CDK13 = CDK13 (Homo sapiens (Human), UniProt Q14004); assay: LANCE Ultra kinase assay, CDK13; assay type: biochemical
# Sequence of CDK13 (Q14004 whole entry, looked up): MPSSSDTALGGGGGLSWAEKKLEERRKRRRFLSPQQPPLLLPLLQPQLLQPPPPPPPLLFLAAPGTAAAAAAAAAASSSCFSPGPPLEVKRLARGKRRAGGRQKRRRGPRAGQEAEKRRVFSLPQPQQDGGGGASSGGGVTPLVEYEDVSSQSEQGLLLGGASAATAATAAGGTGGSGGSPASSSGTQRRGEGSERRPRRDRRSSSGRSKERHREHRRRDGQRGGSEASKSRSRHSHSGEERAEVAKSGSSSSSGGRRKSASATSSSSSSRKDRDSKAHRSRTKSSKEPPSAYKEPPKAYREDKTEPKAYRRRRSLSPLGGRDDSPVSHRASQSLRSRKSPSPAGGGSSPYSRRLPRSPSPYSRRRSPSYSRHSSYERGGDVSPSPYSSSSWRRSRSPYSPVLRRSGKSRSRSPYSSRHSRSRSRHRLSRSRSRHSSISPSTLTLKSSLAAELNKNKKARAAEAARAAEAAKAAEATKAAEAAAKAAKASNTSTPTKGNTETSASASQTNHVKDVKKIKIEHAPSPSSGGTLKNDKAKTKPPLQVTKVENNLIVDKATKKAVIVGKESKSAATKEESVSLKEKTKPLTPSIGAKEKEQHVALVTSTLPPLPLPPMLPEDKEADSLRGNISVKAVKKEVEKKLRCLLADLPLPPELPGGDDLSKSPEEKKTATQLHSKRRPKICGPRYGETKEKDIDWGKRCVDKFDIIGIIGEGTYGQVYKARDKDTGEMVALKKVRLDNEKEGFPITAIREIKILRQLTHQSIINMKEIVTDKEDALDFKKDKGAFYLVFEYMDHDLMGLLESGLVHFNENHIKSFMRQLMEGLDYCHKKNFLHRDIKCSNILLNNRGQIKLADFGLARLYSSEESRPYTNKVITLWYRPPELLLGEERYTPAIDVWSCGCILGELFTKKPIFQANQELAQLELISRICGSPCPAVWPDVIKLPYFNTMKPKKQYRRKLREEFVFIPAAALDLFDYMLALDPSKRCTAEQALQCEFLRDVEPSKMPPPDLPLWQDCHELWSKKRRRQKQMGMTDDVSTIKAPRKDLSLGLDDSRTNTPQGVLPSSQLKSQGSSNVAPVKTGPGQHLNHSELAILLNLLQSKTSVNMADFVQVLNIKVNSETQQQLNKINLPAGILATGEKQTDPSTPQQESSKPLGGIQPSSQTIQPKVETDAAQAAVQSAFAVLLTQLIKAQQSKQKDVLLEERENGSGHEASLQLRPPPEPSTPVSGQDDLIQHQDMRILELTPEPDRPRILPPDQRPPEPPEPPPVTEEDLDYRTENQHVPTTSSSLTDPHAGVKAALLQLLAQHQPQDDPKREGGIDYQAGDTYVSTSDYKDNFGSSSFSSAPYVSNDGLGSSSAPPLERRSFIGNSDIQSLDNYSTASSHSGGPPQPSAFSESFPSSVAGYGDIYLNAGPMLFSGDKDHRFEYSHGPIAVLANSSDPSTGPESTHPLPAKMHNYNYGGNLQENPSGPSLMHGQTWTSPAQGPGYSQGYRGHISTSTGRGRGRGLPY
# Sequence of CDK13 (O75909 whole entry partner, looked up): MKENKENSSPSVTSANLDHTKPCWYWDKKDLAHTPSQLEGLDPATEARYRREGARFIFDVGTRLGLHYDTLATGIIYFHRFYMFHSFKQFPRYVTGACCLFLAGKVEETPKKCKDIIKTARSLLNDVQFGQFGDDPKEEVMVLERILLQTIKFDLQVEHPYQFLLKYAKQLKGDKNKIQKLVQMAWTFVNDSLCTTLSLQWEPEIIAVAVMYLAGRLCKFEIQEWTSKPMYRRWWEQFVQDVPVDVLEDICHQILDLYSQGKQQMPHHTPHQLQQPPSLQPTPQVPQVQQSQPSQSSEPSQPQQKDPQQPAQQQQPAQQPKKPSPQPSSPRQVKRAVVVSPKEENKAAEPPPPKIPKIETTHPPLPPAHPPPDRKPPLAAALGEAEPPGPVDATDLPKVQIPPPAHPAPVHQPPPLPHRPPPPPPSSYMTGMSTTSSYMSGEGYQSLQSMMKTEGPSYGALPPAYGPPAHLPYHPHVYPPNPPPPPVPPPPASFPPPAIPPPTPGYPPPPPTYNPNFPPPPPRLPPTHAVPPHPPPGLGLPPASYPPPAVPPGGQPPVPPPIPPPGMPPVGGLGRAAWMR
# Method: as §1
# CDK9 = CDK9 (Homo sapiens (Human), UniProt P50750); assay: LANCE Ultra kinase assay, CDK9; assay type: biochemical
# Sequence of CDK9 (P50750 whole entry, looked up, species assumed): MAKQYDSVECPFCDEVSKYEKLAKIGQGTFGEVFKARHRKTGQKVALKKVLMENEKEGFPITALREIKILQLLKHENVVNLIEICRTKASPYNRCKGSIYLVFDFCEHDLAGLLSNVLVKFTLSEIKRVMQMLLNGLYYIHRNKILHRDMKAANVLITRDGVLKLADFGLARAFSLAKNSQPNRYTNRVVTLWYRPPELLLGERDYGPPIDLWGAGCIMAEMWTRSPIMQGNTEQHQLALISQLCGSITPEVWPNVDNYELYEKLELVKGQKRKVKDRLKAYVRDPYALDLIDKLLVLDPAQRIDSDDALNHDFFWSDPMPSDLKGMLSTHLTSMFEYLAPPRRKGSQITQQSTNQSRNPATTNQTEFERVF
# Sequence of CDK9 (O60563 whole entry partner, looked up, species assumed): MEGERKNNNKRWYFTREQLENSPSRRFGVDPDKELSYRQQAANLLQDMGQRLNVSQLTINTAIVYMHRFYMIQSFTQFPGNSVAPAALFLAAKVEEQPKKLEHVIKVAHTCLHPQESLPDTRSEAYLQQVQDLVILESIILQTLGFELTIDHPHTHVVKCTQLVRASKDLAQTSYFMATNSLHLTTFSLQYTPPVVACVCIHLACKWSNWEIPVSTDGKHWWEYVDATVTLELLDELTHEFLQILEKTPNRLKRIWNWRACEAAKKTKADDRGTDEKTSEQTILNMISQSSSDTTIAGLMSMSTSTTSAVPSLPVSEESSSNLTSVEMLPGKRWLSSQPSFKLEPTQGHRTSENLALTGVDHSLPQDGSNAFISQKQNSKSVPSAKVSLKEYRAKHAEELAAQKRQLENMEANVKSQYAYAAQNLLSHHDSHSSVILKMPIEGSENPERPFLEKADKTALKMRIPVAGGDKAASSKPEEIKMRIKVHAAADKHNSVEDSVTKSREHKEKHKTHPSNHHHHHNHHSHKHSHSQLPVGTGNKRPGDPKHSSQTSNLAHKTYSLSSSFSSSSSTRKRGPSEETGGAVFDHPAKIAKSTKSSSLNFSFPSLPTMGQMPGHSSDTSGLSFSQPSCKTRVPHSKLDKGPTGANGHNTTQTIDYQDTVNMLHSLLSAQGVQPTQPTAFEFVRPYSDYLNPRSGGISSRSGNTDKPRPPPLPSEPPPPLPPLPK
# Method: as §1
# VCaP cell = VCaP cell proliferation, CellTiter-Glo Luminescent Cell Viability Assay; assay type: cell-based; settings: Homo sapiens, VCaP cells
# Method: The VCaP cell proliferation activity was determined by CellTiter-Glo Luminescent Cell Viability Assay (Promega, Madison, WI). The cells were inoculated on a 96-well plate in their respective culture mediums, and incubated in an incubator with 5% CO2 at 37° C. After incubation overnight, serial dilutions of the compound were prepared, and added into the 96-well plate. A CellTiter-Glo reagent (volume equal to the volume of the cell culture medium present in each well) was added (e.g., 100 μL of the reagent was added into 100 μL of the cell culture medium in the 96-well plate). The contents were mixed on an orbital shaker for 2 min to induce the cell lysis. The cells in the 96-well plate were incubated at room temperature for 10 min, to stabilize the luminescent signal. Luminescence was recorded: the luminescent signal for each well was acquired using an Infinite M1000 Pro plate reader (Tecan, Zurich, Switzerland), and the data was analyzed using GraphPad Prism software (GraphPad Software Inc, La Jolla, CA).
# [1] = 30 nM enzyme, 60 min pre-incubation, ULight-4E-BP1 150 nM, read-out: CDK12 IC50
# [2] = 30 nM enzyme, 60 min pre-incubation, ULight-4E-BP1 150 nM, read-out: CDK13 IC50
# Sequence of CDK12 (Q9NYV4 whole entry): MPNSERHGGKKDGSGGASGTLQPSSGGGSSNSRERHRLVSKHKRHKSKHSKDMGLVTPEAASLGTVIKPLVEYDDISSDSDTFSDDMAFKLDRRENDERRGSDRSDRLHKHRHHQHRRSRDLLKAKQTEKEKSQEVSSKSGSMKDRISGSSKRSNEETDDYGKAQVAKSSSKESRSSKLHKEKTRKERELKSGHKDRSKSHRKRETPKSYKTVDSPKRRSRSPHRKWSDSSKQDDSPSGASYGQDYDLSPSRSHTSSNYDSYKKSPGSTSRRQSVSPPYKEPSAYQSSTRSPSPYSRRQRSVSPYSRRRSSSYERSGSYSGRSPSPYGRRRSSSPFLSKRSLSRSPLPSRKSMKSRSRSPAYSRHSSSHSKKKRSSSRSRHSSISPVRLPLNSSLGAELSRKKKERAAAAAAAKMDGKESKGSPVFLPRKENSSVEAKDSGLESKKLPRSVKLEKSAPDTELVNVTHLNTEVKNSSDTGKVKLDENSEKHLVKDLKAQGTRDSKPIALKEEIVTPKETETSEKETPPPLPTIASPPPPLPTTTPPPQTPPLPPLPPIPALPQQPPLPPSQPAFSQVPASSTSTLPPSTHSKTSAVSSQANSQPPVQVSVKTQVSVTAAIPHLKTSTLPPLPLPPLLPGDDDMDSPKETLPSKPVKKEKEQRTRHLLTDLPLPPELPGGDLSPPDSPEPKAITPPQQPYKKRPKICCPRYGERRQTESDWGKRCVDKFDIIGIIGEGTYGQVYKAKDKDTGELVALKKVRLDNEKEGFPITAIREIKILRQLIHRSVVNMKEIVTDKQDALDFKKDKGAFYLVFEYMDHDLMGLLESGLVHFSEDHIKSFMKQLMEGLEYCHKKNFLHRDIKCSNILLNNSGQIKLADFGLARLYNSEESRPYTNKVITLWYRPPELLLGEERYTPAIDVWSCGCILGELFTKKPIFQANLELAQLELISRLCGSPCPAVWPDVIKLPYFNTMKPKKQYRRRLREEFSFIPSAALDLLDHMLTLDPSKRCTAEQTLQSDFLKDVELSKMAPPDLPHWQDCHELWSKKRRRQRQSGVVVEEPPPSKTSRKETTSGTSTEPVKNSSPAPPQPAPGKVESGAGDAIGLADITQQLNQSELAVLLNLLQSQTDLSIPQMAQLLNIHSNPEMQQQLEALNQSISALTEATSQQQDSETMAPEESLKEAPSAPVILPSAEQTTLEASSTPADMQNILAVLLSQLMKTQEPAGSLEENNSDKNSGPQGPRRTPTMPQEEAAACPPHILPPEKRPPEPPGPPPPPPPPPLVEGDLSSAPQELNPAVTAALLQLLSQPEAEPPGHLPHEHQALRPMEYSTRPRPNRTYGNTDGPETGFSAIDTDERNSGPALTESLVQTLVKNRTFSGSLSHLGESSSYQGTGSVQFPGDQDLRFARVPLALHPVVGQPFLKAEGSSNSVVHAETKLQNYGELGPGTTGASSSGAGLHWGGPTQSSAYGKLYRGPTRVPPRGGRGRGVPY
# Sequence of CDK12 (O75909 whole entry partner): as the sequence (O75909 whole entry partner, looked up) above
SMILES,IC50 (CDK12),inhibitory activities on CDK12/13 kinase (CDK12) (CDK12; in words),IC50 (CDK13),inhibitory activities on CDK12/13 kinase (CDK13) (CDK13; in words),"IC50 (CDK9; 0.3 nM enzyme, 60 min pre-incubation, ULight-4E-BP1 150 nM)","selectivity for CDK9 kinase (CDK9; CDK12/13 versus CDK9, in words)",IC50 (VCaP cell),IC50 (CDK12; [1]),IC50 (CDK13; [2])
"C=CC(=O)Nc1cc(N(C(=O)NCc2ccccc2)[C@H]2CC[C@H](Nc3ccc(C#N)cn3)CC2)ccc1N1CCC(N(C)C)CC1 [YJZ5118, N-(5-(3-benzyl-1-((1r,4r)-4-((5-cyanopyridin-2-yl)amino)cyclohexyl)ureido)-2-(4-(dimethylamino)piperidin-1-yl)phenyl)acrylamide]",15 to 50 nM,strong,15 to 50 nM,strong,> 500 nM,good selectivity,< 15 nM,–,–
"C=CC(=O)Nc1cc(N(C(=O)NCc2ccccc2)[C@H]2CC[C@H](Nc3ccc(C#N)cn3)CC2)ccc1N1CC(N(C)C)C1 [YJZ6077, N-(5-(3-benzyl-1-((1r,4r)-4-((5-cyanopyridin-2-yl)amino)cyclohexyl)ureido)-2-(3-(dimethylamino)azetidin-1-yl)phenyl)acrylamide]",–,–,–,–,–,–,50 to 500 nM,50 to 500 nM,50 to 500 nM
"C=CC(=O)Nc1cc(N(C(=O)NCc2ccccc2)[C@H]2CC[C@H](Nc3ccc(C#N)cn3)CC2)ccc1N1CCN(C(C)=O)CC1 [YJZ5111, N-(2-(4-acetylpiperazin-1-yl)-5-(3-benzyl-1-((1r,4r)-4-((5-cyanopyridin-2-yl)amino)cyclohexyl)ureido)phenyl)acrylamide]",–,–,–,–,–,–,15 to 50 nM,15 to 50 nM,15 to 50 nM
"C=CC(=O)Nc1cc(N(C(=O)NCc2ccccc2)[C@H]2CC[C@H](Nc3ccc(C#N)cn3)CC2)ccc1N1CCOCC1 [YJZ5127, N-(5-(3-benzyl-1-((1r,4r)-4-((5-cyanopyridin-2-yl)amino)cyclohexyl)ureido)-2-morpholinophenyl)acrylamide]",–,–,–,–,–,–,15 to 50 nM,50 to 500 nM,< 15 nM
